Assay results taken from PubChem BioAssay (NCI).
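Tested at 5 concentrations; 48 h exposure; 96-well plates; endpoints linearly interpolated, else capped at highest concentration. The concentration for 50% growth inhibition is given as GI50. TGI marks complete inhibition of growth.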

Columns and labels:
Assay in all cases: inhibition of tumour cell growth, NCI panel, 48 h
MCF7 breast = tested on: MCF7 breast
MDA-MB-435 = tested on: MDA-MB-435
MDA-N = tested on: MDA-N
M19-MEL melanoma = tested on: M19-MEL melanoma
KM20L2 colon = tested on: KM20L2 colon
DMS 273 small cell lung = tested on: DMS 273 small cell lung
XF 498 CNS = tested on: XF 498 CNS
DLD-1 colon = tested on: DLD-1 colon

Question: For `CC1(C)OC2[C@@H](CNC(=O)NC(=O)NC(=O)CI)O[C@@H](n3cnc4c(NC(=O)Nc5ccccc5)ncnc43)[C@H]2O1` (some centres not stated), which GI50 (MCF7 breast) is on record?
Answer: The GI50 was 6.17 µM.

Question: And the TGI (MCF7 breast)?
Answer: Its TGI is 14.2 µM.

Question: What about the GI50 (MDA-MB-435) of the same compound?
Answer: The GI50 was 7.57 µM.

Question: And the TGI (MDA-MB-435)?
Answer: Its TGI is 14.8 µM.

Question: With `CC(=O)OCCN1c2ccccc2Sc2cnccc21` as the compound, how does the TGI (MCF7 breast) read?
Answer: The TGI was greater than 10 µM.

Question: What about the TGI (MDA-MB-435) of the same compound?
Answer: The TGI was greater than 10 µM.

Question: What about the TGI (MDA-N) of the same compound?
Answer: Its TGI is greater than 10 µM.

Question: For `O=c1[nH]ncc(Br)c1Br`, which GI50 (MCF7 breast) is on record?
Answer: Its GI50 is 2 µM.

Question: What about the TGI (MCF7 breast) of the same compound?
Answer: Its TGI is 11 µM.

Question: And the GI50 (MDA-MB-435)?
Answer: Its GI50 is 2.2 µM.

Question: What about the TGI (MDA-MB-435) of the same compound?
Answer: Its TGI is 6.2 µM.

Question: What does the source list for `COc1cc([N+](=O)[O-])cc2c3c(n(C)c12)[C@@]1(C)CCC2c4ccc(OCc5ccccc5)cc4CCC2C1C3` (some centres not stated)?
Answer: GI50 (MCF7 breast): > 100 µM; TGI (MCF7 breast): > 100 µM; GI50 (MDA-MB-435): > 100 µM; TGI (MDA-MB-435): > 100 µM

Question: `Brc1cccc(C=NC23CC4CC(CC(C4)C2)C3)c1` was tested. Which TGI (M19-MEL melanoma) did it give?
Answer: Its TGI is greater than 100 µM.

Question: And the TGI (KM20L2 colon)?
Answer: The TGI was greater than 100 µM.

Question: What about the TGI (DMS 273 small cell lung) of the same compound?
Answer: Its TGI is greater than 100 µM.

Question: And the TGI (XF 498 CNS)?
Answer: Its TGI is greater than 100 µM.

Question: And the TGI (DLD-1 colon)?
Answer: The TGI was greater than 100 µM.

Question: What does the source list for `COc1ccc(C2=CC3CCC2C3)cc1` (configuration not stated)?
Answer: TGI (DMS 273 small cell lung): > 100 µM; TGI (XF 498 CNS): > 100 µM; TGI (DLD-1 colon): > 100 µM

Question: For `O=C(/C(Br)=C/c1ccccc1)c1ccccc1`, which GI50 (MCF7 breast) is on record?
Answer: The GI50 was 4.79 µM.

Question: And the TGI (MCF7 breast)?
Answer: The TGI was 52.9 µM.

Question: What about the GI50 (MDA-MB-435) of the same compound?
Answer: Its GI50 is 1.96 µM.

Question: And the TGI (MDA-MB-435)?
Answer: The TGI was 4.67 µM.

Question: With `COc1ccc(/C=C/c2nccc3ccccc23)cc1OC` as the compound, how does the TGI (MCF7 breast) read?
Answer: Its TGI is greater than 10 µM.

Question: What about the TGI (MDA-MB-435) of the same compound?
Answer: Its TGI is greater than 10 µM.

Question: And the TGI (MDA-N)?
Answer: The TGI was greater than 10 µM.

Question: For `COc1cc(C2=C(c3ccccc3)COC2=O)cc(OC)c1OC`, which GI50 (MCF7 breast) is on record?
Answer: Its GI50 is 0.537 µM.

Question: What about the TGI (MCF7 breast) of the same compound?
Answer: The TGI was greater than 100 µM.

Question: And the GI50 (MDA-MB-435)?
Answer: The GI50 was 0.168 µM.

Question: And the TGI (MDA-MB-435)?
Answer: Its TGI is 0.645 µM.

Question: With `CC(=O)OC[C@]1(C)C=C2C(=O)[C@](C)(O)C3(CC3)C(C)=C2[C@H]1O` as the compound, how does the GI50 (MCF7 breast) read?
Answer: Its GI50 is 0.0273 µM.

Question: What about the TGI (MCF7 breast) of the same compound?
Answer: Its TGI is 15.5 µM.

Question: What about the GI50 (MDA-MB-435) of the same compound?
Answer: Its GI50 is 0.136 µM.

Question: And the TGI (MDA-MB-435)?
Answer: Its TGI is 0.587 µM.

Question: Which results are given for `CCC[CH2][Sn]1([CH2]CCC)[O]Cc2nc(C)ccc2[O]1`?
Answer: GI50 (M19-MEL melanoma): 4.49 µM; TGI (M19-MEL melanoma): 19.2 µM; GI50 (KM20L2 colon): 10.9 µM; TGI (KM20L2 colon): 23.6 µM; GI50 (DMS 273 small cell lung): 11 µM; TGI (DMS 273 small cell lung): 22.9 µM; GI50 (XF 498 CNS): 2.34 µM; TGI (XF 498 CNS): 7.8 µM; GI50 (DLD-1 colon): 10.2 µM; TGI (DLD-1 colon): 21.9 µM

Question: With `OCc1c[nH]c2ccccc12` as the compound, how does the GI50 (MCF7 breast) read?
Answer: Its GI50 is 29.4 µM.

Question: And the TGI (MCF7 breast)?
Answer: Its TGI is 95.4 µM.

Question: And the GI50 (MDA-MB-435)?
Answer: The GI50 was 19.8 µM.

Question: And the TGI (MDA-MB-435)?
Answer: The TGI was 48.2 µM.

Question: What does the source list for `CC[CH2][Sn]([CH2]CC)([O]C(=O)c1cccnc1SC)[O][Sn]([CH2]CC)([CH2]CC)[O]C(=O)c1cccnc1SC`?
Answer: GI50 (MCF7 breast): 0.495 µM; TGI (MCF7 breast): 1.72 µM; GI50 (MDA-MB-435): 1.54 µM; TGI (MDA-MB-435): 2.89 µM; GI50 (M19-MEL melanoma): 0.0833 µM; TGI (M19-MEL melanoma): 0.337 µM; GI50 (KM20L2 colon): 0.775 µM; TGI (KM20L2 colon): 2.11 µM; GI50 (MDA-N): 1.27 µM; TGI (MDA-N): 2.52 µM; GI50 (DMS 273 small cell lung): 0.367 µM; TGI (DMS 273 small cell lung): 1.69 µM; GI50 (XF 498 CNS): 0.159 µM; TGI (XF 498 CNS): 0.296 µM; GI50 (DLD-1 colon): 0.219 µM; TGI (DLD-1 colon): 0.998 µM

Question: `O=C(c1ccccc1)c1nnc(C(=O)c2ccccc2)nn1` was tested. Which TGI (M19-MEL melanoma) did it give?
Answer: The TGI was greater than 344 µM.

Question: And the TGI (KM20L2 colon)?
Answer: Its TGI is greater than 344 µM.

Question: What about the TGI (DMS 273 small cell lung) of the same compound?
Answer: Its TGI is greater than 344 µM.

Question: What about the TGI (DLD-1 colon) of the same compound?
Answer: Its TGI is greater than 344 µM.
